Where a SMILES comes first, the peptide text is derived from it. Bridges are numbered along the chain shown (N, C = ends). [ ]: non-standard residue; d: D form. The star is where a group is joined. 1Nal = N[C@@H](Cc1cccc2ccccc12)C(=O)O; Acm = CC(=O)NC*
Key:
[1] = 24 hours post-injection
Procedure: (§1) S1 and S1PS5 peptides derived from SOCS1 KIR domain (residues 53-68) conjugated with the cell penetrating sequences at N-terminal were synthesized by solid phase method following the Fmoc strategy, purified by preparative reverse phase-HPLC and lyophilized. Peptides were dissolved in 1% DMSO in saline solution (S1) and H2O (S1PS5), then filter-sterilized and stored at -80°C before use. For biodistribution studies, peptides were labelled with rhodamine or carboxytetramethylrhodamine (TAMRA) at N-terminal. For stability assays, peptides were incubated at 37°C with 25% foetal bovine serum (FBS). At selected times, 80 µL aliquots were taken, precipitated with 15% trichloroacetic acid, and further analysed by reverse phase HPLC with UV detector.

mouse VSMC = assay: cellular uptake of TAMRA-conjugated S1PS5 peptides (confocal microscopy); assay type: cell-based; conditions: for degraded in cells: at 24 hours, TAMRA fluorescence intensity; for efficient uptake after: quantification of peptide internalization by TAMRA fluorescence intensity
in vitro = assay: in vitro
Procedure: as §1

| Structure (SMILES) | localization in aortic tissue (confocal analysis) [1] | degraded in cells (mouse VSMC) | efficient uptake after (mouse VSMC) | metabolised at 20 h (in vitro; 25% foetal bovine serum) | remaining at 42 h (in vitro; 25% foetal bovine serum) | degradation rate (in vitro; 25% FBS, 37°C, at 17-20 hours) |
| --- | --- | --- | --- | --- | --- | --- |
| CC(=O)NCSC[C@@H]1NC(=O)[C@H]([C@@H](C)O)NC(=O)[C@@H](NC(=O)CNC(=O)CNC(=O)[C@H](CCC(N)=O)NC(=O)[C@@H]2CCCN2C(=O)[C@@H]2CCCN2C(=O)[C@H](CCCNC(=N)N)NC(=O)[C@H](CCCNC(=N)N)NC(=O)[C@H](CCCNC(=N)N)NC(=O)[C@H](CCC(N)=O)NC(=O)[C@H](CCCNC(=N)N)NC(=O)[C@H](CCCNC(=N)N)NC(=O)[C@H](CCCCN)NC(=O)[C@H](CCCCN)NC(=O)[C@H](CCCNC(=N)N)NC(=O)CN)CC(=O)NCCCC[C@@H](C(=O)N[C@@H](Cc2c[nH]cn2)C(=O)O)NC(=O)[C@H](CCCNC(=N)N)NC(=O)[C@H](Cc2cccc3ccccc23)NC(=O)[C@H]([C@@H](C)O)NC(=O)[C@H](CCC(N)=O)NC(=O)[C@H](CCCNC(=N)N)NC1=O [internal cyclic S1PS5 Nal1, GRKKRRQRRRPPQGGDTCAcmRQTNal1RKH] (H-GRKKRRQRRRPPQGGDTC(Acm)RQT[1Nal]RKH-OH; lactam 16-24) | detected | 40% | ~2 h | ~20% | ~40% |  |
| CC(=O)NCSC[C@@H]1NC(=O)[C@H]([C@@H](C)O)NC(=O)[C@@H](NC(=O)CNC(=O)CNC(=O)[C@H](CCC(N)=O)NC(=O)[C@@H]2CCCN2C(=O)[C@@H]2CCCN2C(=O)[C@H](CCCNC(=N)N)NC(=O)[C@H](CCCNC(=N)N)NC(=O)[C@H](CCCNC(=N)N)NC(=O)[C@H](CCC(N)=O)NC(=O)[C@H](CCCNC(=N)N)NC(=O)[C@H](CCCNC(=N)N)NC(=O)[C@H](CCCCN)NC(=O)[C@H](CCCCN)NC(=O)[C@H](CCCNC(=N)N)NC(=O)CN)CC(=O)NCCCC[C@@H](C(=O)N[C@@H](Cc2c[nH]cn2)C(=O)O)NC(=O)[C@H](CCCNC(=N)N)NC(=O)[C@H](Cc2ccccc2)NC(=O)[C@H]([C@@H](C)O)NC(=O)[C@H](CCC(N)=O)NC(=O)[C@H](CCCNC(=N)N)NC1=O [internal cyclic S1PS5, GRKKRRQRRRPPQGGDTCAcmRQTFRKH] (H-GRKKRRQRRRPPQGGDTC(Acm)RQTFRKH-OH; lactam 16-24) |  | almost completely degraded | ~2 h | ~40% |  |  |
| CC(=O)NCSC[C@H](NC(=O)[C@@H](NC(=O)[C@H](CC(=O)O)NC(=O)CNC(=O)CNC(=O)[C@H](CCC(N)=O)NC(=O)[C@@H]1CCCN1C(=O)[C@@H]1CCCN1C(=O)[C@H](CCCNC(=N)N)NC(=O)[C@H](CCCNC(=N)N)NC(=O)[C@H](CCCNC(=N)N)NC(=O)[C@H](CCC(N)=O)NC(=O)[C@H](CCCNC(=N)N)NC(=O)[C@H](CCCNC(=N)N)NC(=O)[C@H](CCCCN)NC(=O)[C@H](CCCCN)NC(=O)[C@H](CCCNC(=N)N)NC(=O)CN)[C@@H](C)O)C(=O)N[C@@H](CCCNC(=N)N)C(=O)N[C@@H](CCC(N)=O)C(=O)N[C@H](C(=O)N[C@@H](Cc1ccccc1)C(=O)N[C@@H](CCCNC(=N)N)C(=O)N[C@@H](CO)C(=O)N[C@@H](Cc1c[nH]cn1)C(=O)O)[C@@H](C)O [linear S1PS5, GRKKRRQRRRPPQGGDTCAcmRQTFRSH] (H-GRKKRRQRRRPPQGGDTC(Acm)RQTFRSH-OH) |  |  |  |  |  | 40% |
